The values that follow come from ChEMBL document CHEMBL1126248, “Synthesis and enzymatic activity of some new purine ring system analogues of adenosine 3',5'-cyclic monophosphate” (J Med Chem, 1992).

Assay [1] addresses cAMP-dependent protein kinase A (Bos taurus) (UniProt P00517+P05131+P31322+P00515).
Description: Activation of cAMP-dependent protein kinase type II

Description for Oryctolagus cuniculus: Activation of cAMP-dependent protein kinase type I

On to `O=[N+]([O-])c1cccc2c1nnn2[C@@H]1O[C@@H]2COP(=O)(O)O[C@H]2[C@H]1O`, for which the K'a in assay [1] was 1; in the assay filed under Oryctolagus cuniculus, 0.88.
In the case of `O=[N+]([O-])c1cccc2c1ncn2[C@@H]1O[C@@H]2COP(=O)(O)O[C@H]2[C@H]1O`, the K'a in assay [1] came out at 1.56; in the assay filed under Oryctolagus cuniculus, 0.08.
On the same counts, the results for `O=P1(O)OC[C@H]2O[C@@H](n3nnc4ccccc43)[C@H](O)[C@@H]2O1` (stereo in doubt) are 0.7 and 0.25.
With `O=P1(O)OC[C@H]2O[C@@H](n3nnc4ccccc43)[C@H](O)[C@@H]2O1` (stereo in doubt; 14), the K'a in assay [1] came to 0.88; in the assay listed under Oryctolagus cuniculus, 0.64.
On the same counts, the results for `Nc1cccc2c1cnn2[C@H]1O[C@@H]2COP(=O)(O)O[C@H]2[C@H]1O` are 0.54 and 0.65.
Taken in the same sequence, the figures for `O=P1(O)OC[C@H]2O[C@@H](n3cc4ccccc4n3)[C@H](O)[C@@H]2O1` were 1.4 and 0.14.
Taken in the same sequence, the figures for `O=[N+]([O-])c1cccc2c1cnn2[C@@H]1O[C@@H]2COP(=O)(O)O[C@H]2[C@H]1O` were 2.5 and 1.17.
With `O=P1(O)OC[C@H]2O[C@@H](n3nc4ccccc4n3)[C@H](O)[C@@H]2O1`, the K'a in assay [1] was found to be 3.5; in the assay listed under Oryctolagus cuniculus, 0.82.
Taken in the same sequence, the figures for `O=P1(O)OC[C@H]2O[C@@H](n3ncc4ccccc43)[C@H](O)[C@@H]2O1` were 0.048 and 0.014.
Taken in the same sequence, the figures for `Nc1cccc2c1nnn2[C@@H]1O[C@@H]2COP(=O)(O)O[C@H]2[C@H]1O` were 0.93 and 0.88.
On the same counts, the results for `Nc1cccc2c1ncn2[C@@H]1O[C@@H]2COP(=O)(O)O[C@H]2[C@H]1O` are 0.67 and 0.2.
